Test results reported in patent US8604217B2, “Compound, a process for its preparation, a pharmaceutical composition, use of a compound, a method for modulating or regulating serine/threonine kinases and a serine/threonine kinases modulating agent” (Selvita S.A., priority 2009, dated 2013).

What was measured:
PIM-1 = PIM-1 (Homo sapiens (Human), UniProt P11309); test: Luminometric kinase assay for PIM1 kinase (Kinase-Glo); assay type: biochemical; conditions: 1 μM ATP, 25 min at RT
Protocol: Kinase assay was performed using luminescent Kinase-Glo® (Promega) system. The Kinase-Glo® Luminescent Kinase Assay Platform provides a homogeneous, high-throughput screening method for measuring kinase activity by quantifying the amount of ATP remaining in solution following a kinase reaction. The luminescent signal is correlated with the amount of ATP present and is inversely correlated with the kinase activity. Appropriate amounts of both kinase and substrate were mixed in 96-well, white wall plate in the reaction buffer (8 mM MOPS/NaOH, pH7.0, 0.2 mM EDTA, 2 mM MgCl2). Tested compounds were diluted in DMSO and serial dilutions starting with 1 μM were added to the palates. Reaction was initiated by adding 1 μM of ATP solution and conducted for 25 min. at RT. Luminescent signal was detected by adding Kinase-Glo® reagent and measured using a microplate spectrophotometer (Synergy 2 multi-mode microplate reader (BioTek)). IC50 values were obtained by fitting sigmoidal dose-response curve (variable slope) using GraphPad Prism software.

[1] = system: human myelomonocytic, biphenotypic leukemia MV4-11 cells; test: Growth inhibition test (MTS) on MV4-11 cells; assay type: cell-based; conditions: Homo sapiens, MV4-11, 72 hours, read-out: MV-4-11 ED50
Protocol: (§1) Ten thousand cells of human myelomonocytic, biphenotypic leukemia MV4-11 were inoculated into each well of a 96-well microplate (manufactured by Corning Corp.) using Iscove's MDM medium (culture medium) containing 10% fetal calf serum (FCS). Next day, a dimethyl sulfoxide (DMSO) solution of each test compound prepared in a concentration of 10 mmol/L was further diluted with culture medium to the desired concentrations (0.1, 0.5, 1, 2.5, 5 and 10 micromol/L), and the diluted solution was added to each well. The individual wells were further cultured in 5% carbon dioxide at 37° C. for 72 hours. After completion of the culture, 10 μl MTS (3-(4,5-Dimethyl-2-thiazolyl)-5-(carboxymethoxyphenyl)-2-(4-sulfophenyl)-2H-tetrazolium, inner salt assay (CellTiter96® AQueous One Solution Cell Proliferation Assay, Promega) was added to each well, and culturing was performed in 5% carbon dioxide at 37° C. for 2 hours. Using a microplate spectrophotometer (Synergy 2 multi-mode microplate reader (BioTek)), the absorbance of each well was measured at 490 nm. The value for cells not incorporated with a test compound was designated as 100%. By comparing these values with the absorbance difference obtained at the well in which each test compound was added, the cell viability (% viability) after treatment with the test compound was calculated.

[2] = system: human hepatoma HepG2 cells; test: Growth inhibition test (MTS) on HepG2 cells; assay type: cell-based; conditions: 72 hours, read-out: HepG2 ED50
Protocol: as §1, with “Two” for “Ten”, “hepatoma HepG2” for “myelomonocytic, biphenotypic leukemia MV4-11”, “DMEM” for “Iscove's MDM”

[3] = system: human prostate adenocarcinoma PC3 cells; test: Growth inhibition test (MTS) on PC3 cells; assay type: cell-based; conditions: Homo sapiens, PC-3, 72 hours, read-out: PC-3 ED50
Text: as §1, with “Two” for “Ten”, “prostate adenocarcinoma PC3” for “myelomonocytic, biphenotypic leukemia MV4-11”, “Corp.), and” for “Corp.)”, “F12K (Ham's F12:[…] 1:1)” for “Iscove's MDM”

[4] = system: human breast adenocarcinoma MCF7 cells; test: Growth inhibition test (MTS) on MCF7 cells; assay type: cell-based; conditions: Homo sapiens, MCF7, 72 hours, read-out: MCF-7 ED50
Protocol: as §1, with “Two” for “Ten”, “breast adenocarcinoma MCF7” for “myelomonocytic, biphenotypic leukemia MV4-11”, “Corp.), and” for “Corp.)”, “DMEM” for “Iscove's MDM”

PIM-1, sequence (P11309 whole entry): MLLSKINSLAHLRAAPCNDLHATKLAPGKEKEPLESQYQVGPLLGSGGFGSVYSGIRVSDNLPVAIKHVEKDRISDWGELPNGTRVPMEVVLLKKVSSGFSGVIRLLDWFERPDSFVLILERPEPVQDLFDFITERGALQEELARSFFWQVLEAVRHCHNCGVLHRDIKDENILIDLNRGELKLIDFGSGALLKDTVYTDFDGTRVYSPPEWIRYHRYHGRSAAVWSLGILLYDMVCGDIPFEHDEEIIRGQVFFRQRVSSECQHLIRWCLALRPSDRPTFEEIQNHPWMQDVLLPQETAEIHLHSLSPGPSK

Structure (SMILES) | IC50 (PIM-1) [nM] | IC50 [1] [nM] | IC50 [2] [nM] | IC50 [3] [nM] | IC50 [4] [nM]
Brc1c(Br)c(Br)c2[nH]c(NCCCN3CCCCC3)nc2c1Br [Compound 59, 4,5,6,7-tetrabromo-N-(3-(piperidin-1-yl)propyl)-1H-benzo[d]imidazol-2-amine] | 50.8 |  | 3600 |  | 
Brc1c(Br)c(Br)c2[nH]c(NCC3CCNCC3)nc2c1Br [Compound 67, 4,5,6,7-tetrabromo-N-((piperidin-4-yl)methyl)-1H-benzo[d]imidazol-2-amine] | 65.2 |  |  |  | 
Brc1c(Br)c(Br)c2[nH]c(Nc3ccccc3)nc2c1Br [Compound 79, 4,5,6,7-tetrabromo-N-phenyl-1H-benzo[d]imidazol-2-amine] | 68.2 |  | 6520 |  | 
Brc1c(Br)c(Br)c2[nH]c(NCc3ccccc3)nc2c1Br [Compound 82, N-benzyl-4,5,6,7-tetrabromo-1H-benzo[d]imidazol-2-amine] | 200 |  |  |  | 
CN(C)CCCN(Cc1ccccc1)c1nc2c(Br)c(Br)c(Br)c(Br)c2[nH]1 [Compound 85, N-benzyl-4,5,6,7-tetrabromo-N-(3-(dimethylamino)propyl)-1H-benzo[d]imidazol-2-amine] | 65.3 | 2660 | 2840 | 5840 | 4120
Nc1ccc(Nc2nc3c(Br)c(Br)c(Br)c(Br)c3[nH]2)cc1 [Compound 86, N1-(4,5,6,7-tetrabromo-1H-benzo[d]imidazol-2-yl)benzene-1,4-diamine] | 66 |  |  |  | 
CN(C)CCN(Cc1ccccc1)c1nc2c(Br)c(Br)c(Br)c(Br)c2n1Cc1ccccc1 [Compound 95, N,1-dibenzyl-4,5,6,7-tetrabromo-N-(2-(dimethylamino)ethyl)-1H-benzo[d]imidazol-2-amine] | 75.7 | 7610 |  |  | 
CN(Cc1ccccc1)c1nc2c(Br)c(Br)c(Br)c(Br)c2[nH]1 [Compound 117, N-benzyl-4,5,6,7-tetrabromo-N-methyl-1H-benzo[d]imidazol-2-amine] | 85.6 | 9400 |  |  | 
Brc1c(Br)c(Br)c2[nH]c(NCCc3ccccn3)nc2c1Br [Compound 128, 4,5,6,7-tetrabromo-N-(2-(pyridin-2-yl)ethyl)-1H-benzo[d]imidazol-2-amine] | 71.3 | 3830 |  |  | 
Cc1c(Nc2nc3c(Br)c(Br)c(Br)c(Br)c3[nH]2)cccc1-c1nncn1C [Compound 248, 4,5,6,7-tetrabromo-N-(2-methyl-3-(4-methyl-4H-1,2,4-triazol-3-yl)phenyl)-1H-benzo[d]imidazol-2-amine] | 48.9 |  |  |  | 
Cc1nccn1CC1CCCN(c2nc3c(Br)c(Br)c(Br)c(Br)c3[nH]2)C1 (stereo not shown) [Compound 262, 4,5,6,7-tetrabromo-2-(3-((2-methyl-1H-imidazol-1-yl)methyl)piperidin-1-yl)-1H-benzo[d]imidazole] | 61.4 |  |  |  | 
Brc1c(Br)c(Br)c2[nH]c(N3CCCC(CN4CCN(c5ccccn5)CC4)C3)nc2c1Br (stereo not shown) [Compound 266, 4,5,6,7-tetrabromo-2-(3-((4-(pyridin-2-yl)piperazin-1-yl)methyl)piperidin-1-yl)-1H-benzo[d]imidazole] | 294 | 2550 | 2480 |  | 
Oc1ncc(Nc2nc3c(Br)c(Br)c(Br)c(Br)c3[nH]2)c(O)n1 [Compound 303, 5-(4,5,6,7-tetrabromo-1H-benzo[d]imidazol-2-ylamino)pyrimidine-2,4-diol] | 128 |  |  |  | 
Brc1c(Br)c(Br)c2[nH]c(N3CCN4CCC3CC4)nc2c1Br [Compound 350, 2-(4,5,6,7-tetrabromo-1H-benzo[d]imidazol-2-yl)-2,5-diaza-bicyclo[3.2.2]nonane] | 32.7 | 5520 | 5550 | 8480 | 6550
Brc1c(Br)c(Br)c2[nH]c(N3CCNc4ccccc43)nc2c1Br [Compound 367, 1-(4,5,6,7-tetrabromo-1H-benzo[d]imidazol-2-yl)-1,2′,3,4-tetrahydroquinoxaline] | 39.5 | 3770 |  |  | 

More lines, in order of falling IC50 (PIM-1), values ahead:

IC50 (PIM-1) [nM] | IC50 [1] [nM] | IC50 [2] [nM] | IC50 [3] [nM] | Structure (SMILES) | IC50 [4] [nM]
37 |  |  |  | Brc1c(Br)c(Br)c2[nH]c(Nc3ccncc3)nc2c1Br [Compound 28, 4,5,6,7-tetrabromo-N-(pyridin-4-yl)-1H-benzo[d]imidazol-2-amine] | 
36.8 |  |  |  | CN(C)CCN1CCN(c2nc3c(Br)c(Br)c(Br)c(Br)c3[nH]2)CC1 [Compound 343, 2-(4-(4,5,6,7-tetrabromo-1H-benzo[d]imidazol-2-yl)piperazin-1-yl)-N,N-dimethylethanamine] | 
28.6 |  |  |  | CN(c1ccccc1)c1nc2c(Br)c(Br)c(Br)c(Br)c2[nH]1 [Compound 342, 4,5,6,7-tetrabromo-N-methyl-N-phenyl-1H-benzo[d]imidazol-2-amine] | 
14.8 | 1360 |  |  | N[C@@H]1CC=CC[C@H]1Nc1nc2c(Br)c(Br)c(Br)c(Br)c2[nH]1 (relative stereo) [Compound 331, Trans N1-(4,5,6,7-tetrabromo-1H-benzo[d]imidazol-2-yl)cyclohex-4-ene-1,2-diamine] | 
14.1 | 5340 |  |  | OC1CCCCC1Nc1nc2c(Br)c(Br)c(Br)c(Br)c2[nH]1 (stereo not shown) [Compound 334, 2-(4,5,6,7-tetrabromo-1H-benzo[d]imidazol-2-ylamino)cyclohexanol] | 
13.3 | 7680 |  |  | Brc1c(Br)c(Br)c2[nH]c(N3CCCC3)nc2c1Br [Compound 18, 4,5,6,7-tetrabromo-2-(pyrrolidin-1-yl)-1H-benzo[d]imidazole] | 
13.1 |  | 3980 | 6520 | NCC(O)CNc1nc2c(Br)c(Br)c(Br)c(Br)c2[nH]1 (stereo not shown) [Compound 90, 1-(4,5,6,7-tetrabromo-1H-benzo[d]imidazol-2-ylamino)-3-aminopropan-2-ol] | 
8.85 |  | 7350 | 8330 | NCCCCNc1nc2c(Br)c(Br)c(Br)c(Br)c2[nH]1 [Compound 61, N-(4-aminobutyl)-4,5,6,7-tetrabromo-1H-benzo[d]imidazol-2-amine] | 
